In patent US20240294551A1 (AMGEN INC., priority 2022, published 2024):
Read-outs that look alike come from different tables or passages of the source.

Key:
[1] = molecular target: His-tagged KRAS G12D protein (Homo sapiens (Human), UniProt P01116, G12D); assay: KRAS G12D TR-FRET Assay; assay type: binding
Method in brief: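 Each incubation ran at room temperature: enzyme with compound for 30 minutes, peptide for one hour, and detection reagents (0.4 nM europium anti-6×His, 5 nM streptavidin-d2) for one hour more. Protein and peptide stocks were each diluted to 20 nM before addition.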

[2] = molecular target: GDP-bound KRAS protein (aa 1-169), containing both G12D and C118A amino acid substitutions (Homo sapiens (Human), UniProt P01116, C118A/G12D); assay: KRAS G12D Coupled Nucleotide Exchange Assay; assay type: biochemical
[3] = test system: Phosphorylation of ERK1/2 in AsPC-1 cells; assay: Phospho-ERK1/2 MSD Assay; assay type: cell-based, human
Method in brief: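 Read-out: MSD electrochemiluminescent detection of phosphorylated ERK1/2 in whole-cell lysates, fitted to a 4-parameter logistic curve for IC50. Prior to lysis, AsPC-1 cells (25,000 per well) received a 2 h compound dose-response at 37 °C.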

[4] = test system: AsPC-1 cells; assay: AsPC-1 CTG Assay (CellTiter-Glo cell viability); assay type: cell-based, human; conditions: first value of the cell, read-out: G12D/C/V Cell Proliferation CTG (72 h) AsPC-1
Method in brief: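 IC50 values derive from 4-parameter logistic fits of CellTiter-Glo luminescence, expressed relative to DMSO. Compound dilution series were applied to overnight-seeded AsPC-1 or SW620 cells (RPMI 1640, 10% FBS) for 72 h at 37 °C, 5% CO2.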

[5] = test system: MIA PaCa-2 cells; assay: MIA PaCa-2 CTG Assay (CellTiter-Glo cell viability); assay type: cell-based, human; conditions: second value of the cell
Procedure: MIA PaCa-2 CTG Assay Protocol
MIA PaCa-2 (human pancreatic carcinoma; ATCC CRL-1420) cells were cultured in RPMI 1640 medium containing 10% fetal bovine serum and 1× penicillin/streptomycin/L-glutamine. Cells were seeded in 384-well plates at a density of 1.67E+04 cells/mL and incubated at 37° C., 5% CO2, overnight. Serially-diluted compound or DMSO was added to the cells, and plates were incubated at 37° C., 5% CO2 for 72 h. Cell viability was measured using a CellTiter-Glo® Luminescent Cell Viability Assay kit (Promega) according to the manufacturer's protocol. The luminescence signal of treated samples was normalized to DMSO control, and data were analyzed using a 4-parameter logistic model to calculate IC50 values.

[6] = read-out: KRAS G12D Binding IC50
[7] = read-out: KRAS G12D Coupled Exchange IC50
[8] = Homo sapiens, ASPC1, 2 h, read-out: 2 h p-ERK (AsPC-1 cells), IC50
[9] = Homo sapiens, ASPC1, 72 h, AsPC-1, 72 h
[10] = Homo sapiens, Mia PaCa-2, 72 h, read-out: G12D/C/V Cell Proliferation CTG (72 h) Mia PaCa-2
[11] = TR-FRET, read-out: KRAS G12D Binding
[12] = 2 hours compound pre-incubation, read-out: KRAS G12D Coupled Exchange
[13] = Homo sapiens, ASPC1, 2 h, read-out: 2 h p-ERK (AsPC-1 cells)
[14] = Homo sapiens, ASPC1, 72 h, AsPC-1 cells (G12D), 72 h
[15] = Homo sapiens, MIA PaCa-2 cells (G12C), 72 h, read-out: G12D/C/V Cell Proliferation CTG (72 h) MIA PaCa-2

Sequence of His-tagged KRAS G12D protein (P01116 other isoform, or with tags, fused parts or gaps G12D): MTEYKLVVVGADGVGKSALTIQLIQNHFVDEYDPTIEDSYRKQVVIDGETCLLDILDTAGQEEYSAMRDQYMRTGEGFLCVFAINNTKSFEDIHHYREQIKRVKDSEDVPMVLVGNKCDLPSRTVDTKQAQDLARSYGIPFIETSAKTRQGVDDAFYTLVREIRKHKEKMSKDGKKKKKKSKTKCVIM
Sequence of GDP-bound KRAS protein (aa 1-169), containing both G12D and C118A amino acid substitutions (P01116 other isoform, or with tags, fused parts or gaps G12D/C118A): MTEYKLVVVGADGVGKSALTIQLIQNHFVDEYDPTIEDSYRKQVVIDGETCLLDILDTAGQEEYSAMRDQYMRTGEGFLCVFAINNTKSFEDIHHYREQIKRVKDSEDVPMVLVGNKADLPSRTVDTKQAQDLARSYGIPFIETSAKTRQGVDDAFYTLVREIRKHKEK

| SMILES | IC50 [1, 6] | IC50 [2, 7] | IC50 [3, 8] | IC50 [4, 9] | IC50 [5, 10] | IC50 ([3]; 2 h, read-out: 2 h p-ERK (AsPC-1 cells), IC50) | IC50 ([4]; AsPC-1, 72 h) | IC50 ([5]; Mia PaCa-2, 72 h, read-out: G12D/C/V Cell Proliferation CTG (72 h) Mia PaCa-2) | IC50 [1, 11] | IC50 [2, 12] | IC50 [3, 13] | IC50 [4, 14] | IC50 [5, 15] |
| --- | --- | --- | --- | --- | --- | --- | --- | --- | --- | --- | --- | --- | --- |
| O=C1CCCCc2c(Cl)cc3[nH]ncc3c2-c2ncc3c(nc(OC[C@@]45CCCN4C[C@H](F)C5)nc3c2F)N2CCCC[C@H](C2)O1 [Example 82, (26R)-18-chloro-32-fluoro-4-(((2R,7aS)-2-fluorotetrahydro-1H-pyrrolo[1,2-a]pyrrol-7a(5H)-yl)methoxy)-25-oxa-1,3,5,9,14,15-hexaazahexacyclo[24.4.1.1~6,10~.0~2,7~.0~11,19~.0~12,16~]dotriaconta-2,4,6,8,10(32),11,13,16,18-nonaen-24-one] | 0.002 µM | 0.001 µM | 0.002 µM | 0.04 µM | 0.01 µM |  |  |  |  |  |  |  |  |
| CN1[C@H](COc2nc3c4cnc(c(F)c4n2)-c2c(c(Cl)cc4[nH]ncc24)CCCOC(=O)O[C@@H]2COCCN3C2)C[C@@H]2C[C@@H]21 [Example 330, (26S)-18-chloro-32-fluoro-4-(((1S,3S,5S)-2-methyl-2-azabicyclo[3.1.0]hexan-3-yl)methoxy)-23,25,28-trioxa-1,3,5,9,14,15-hexaazahexacyclo[24.4.1.1~6,10~.0~2,7~.0~11,19~.0~12,16~]dotriaconta-2,4,6,8,10(32),11,13,16,18-nonaen-24-one] | 0.004 µM | 0.002 µM | 0.02 µM | 0.128 µM | 0.054 µM |  |  |  |  |  |  |  |  |
| O=C1COCCc2c(Cl)cc3[nH]ncc3c2-c2ncc3c(nc(OC[C@@]45CCCN4C[C@H](F)C5)nc3c2F)N2CC[C@H]3CCN1[C@H]3C2 [Example 270, (28S,32R)-18-chloro-33-fluoro-4-(((2R,7aS)-2-fluorotetrahydro-1H-pyrrolo[1,2-a]pyrrol-7a(5H)-yl)methoxy)-22-oxa-1,3,5,9,14,15,25-heptaazaheptacyclo[23.5.2.1~6, 10~.0~2,7~.0~11,19~.0~12,16~.0~28,32~]tritriaconta-2,4,6,8,10(33),11,13,16,18-nonaen-24-one] | 0.007 µM | 0.002 µM |  |  |  | 0.123 µM | 0.606 µM | 0.675 µM |  |  |  |  |  |
| Cc1cc2[nH]ncc2c2c1CCCOCC(=O)N1CC[C@@H]3CCN(C[C@@H]31)c1nc(OC[C@@]34CCCN3C[C@H](F)C4)nc3c(F)c-2ncc13 [Example 277, (29S,33R)-34-fluoro-4-(((2R,7aS)-2-fluorotetrahydro-1H-pyrrolo[1,2-a]pyrrol-7a(5H)-yl)methoxy)-18-methyl-23-oxa-1,3,5,9,14,15,26-heptaazaheptacyclo[24.5.2.1~6,10~.0~2,7~.0~11,19~.0~12,16~.0~29,33~]tetratriaconta-2,4,6,8,10(34),11,13,16,18-nonaen-25-one] | 0.003 µM | 0.002 µM | 0.011 µM | 0.088 µM | 0.06 µM |  |  |  |  |  |  |  |  |
| Cc1cc2[nH]ncc2c2c1[C@H]1C[C@H]1CCOC[C@H]1CN(CCO1)c1nc(OC[C@@]34CCCN3C[C@H](F)C4)nc3c(F)c-2ncc13 (single isomer, unassigned) [Example 226] | 0.007 µM | 0.005 µM | 0.0778 µM | 0.412 µM | 0.13 µM |  |  |  |  |  |  |  |  |
| O=C1OCCCc2c(Cl)cc3[nH]ncc3c2-c2ncc3c(nc(OC[C@@]45CCCN4C[C@@H](F)C5)nc3c2F)N2CCOC[C@H](C2)O1 [Example 360, (26S)-18-chloro-32-fluoro-4-(((25,7aS)-2-fluorotetrahydro-1H-pyrrolo[1,2-a]pyrrol-7a(5H)-yl)methoxy)-23,25,28-trioxa-1,3,5,9,14,15-hexaazahexacyclo[24.4.1.1~6,10~.0~2,7~.0~11,19~.0~12,16~]dotriaconta-2,4,6(32),7,9,11,13,16,18-nonaen-24-one] | 0.01 µM | 0.003 µM | 0.118 µM | 0.457 µM | 0.344 µM |  |  |  |  |  |  |  |  |
| Fc1c2ncc3c(nc(OC[C@@]45CCCN4C[C@H](F)C5)nc13)N1CCCC[C@](F)(COCCCCc3c(Cl)cc4[nH]ncc4c3-2)C1 [Example 398, (26R)-18-chloro-26,32-difluoro-4-(((2R,7aS)-2-fluorotetrahydro-1H-pyrrolo[1,2-a]pyrrol-7a(5H)-yl)methoxy)-24-oxa-1,3,5,9,14,15-hexaazahexacyclo[24.4.1.1~6,10~.0~2,7~.0~11,19~.0~12,16~]dotriaconta-2,4,6,8,10(32),11,13,16,18-nonaene] |  |  |  |  |  |  |  |  | 0.004 µM | 0.002 µM | 0.0268 µM | 0.035 µM | 0.17 µM |
| O=C1OCCCc2c(Cl)cc3[nH]ncc3c2-c2ccc3c(nc(OC[C@@]45CCCN4C[C@H](F)C5)nc3c2F)N2CCOC[C@H](C2)O1 [Example 189, (26S)-18-chloro-32-fluoro-4-(((2R,7aS)-2-fluorotetrahydro-1H-pyrrolo[1,2-a]pyrrol-7a(5H)-yl)methoxy)-23,25,28-trioxa-1,3,5,14,15-pentaazahexacyclo[24.4.1.1~6,10~.0~2,7~.0~11,19~.0~12,16~]dotriaconta-2,4,6,8,10(32),11,13,16,18-nonaen-24-one] | 0.003 µM | 0.002 µM | 0.0049 µM | 0.115 µM | 0.024 µM |  |  |  |  |  |  |  |  |
| O=C1OCC[C@@H]2CCc3cc4[nH]ncc4c(c32)-c2ncc3c(nc(OC[C@@]45CCCN4C[C@H](F)C5)nc3c2F)N2CCOC[C@H](C2)O1 [Example 367, (16S,22S)-34-fluoro-8-(((2R,7aS)-2-fluorotetrahydro-1H-pyrrolo[1,2-a]pyrrol-7a(5H)-yl)methoxy)-14,17,19-trioxa-3,7,9,11,28,29-hexaazaheptacyclo[20.9.1.1~2,6~.1~11,16~.0~5,10~.0~25,32~.0~27,31~]tetratriaconta-1(31),2(34),3,5,7,9,25(32),26,29-nonaen-18-one] | 0.004 µM | 0.002 µM | 0.0092 µM | 0.139 µM | 0.026 µM |  |  |  |  |  |  |  |  |
| Fc1c2ncc3c(nc(OC[C@@]45CCCN4C[C@H](F)C5)nc13)N1CCCC[C@H](C1)c1cnn(n1)CCCc1c(Cl)cc3[nH]ncc3c1-2 [Example 296, (1R)-10-chloro-33-fluoro-24-(((2R,7aS)-2-fluorotetrahydro-1H-pyrrolo[1,2-a]pyrrol-7a(5H)-yl)methoxy)-4,5,13,14,19,23,25,27,34-nonaazaheptacyclo[25.4.1.1~2,5~.1~18,22~.0~9,17~.0~12,16~.0~21,26~]tetratriaconta-2(34),3,9,11,14,16,18(33),19,21,23,25-undecaene] | 0.004 µM | 0.004 µM | 0.0126 µM | 0.15 µM | 0.053 µM |  |  |  |  |  |  |  |  |
| [2H]C([2H])([2H])[C@@]12COCCN(C1)c1nc(OC[C@@]34CCCN3C[C@H](F)C4)nc3c(F)c(ncc13)-c1c(c(Cl)cc3[nH]ncc13)CCCOC(=O)O2 [Example 353, (26S)-18-chloro-32-fluoro-4-(((2R,7aS)-2-fluorotetrahydro-1H-pyrrolo[1,2-a]pyrrol-7a(5H)-yl)methoxy)-26-(~2~H_3_)methyl-23,25,28-trioxa-1,3,5,9,14,15-hexaazahexacyclo[24.4.1.1~6,10~.0~2,7~.0~11,19~.0~12,16~]dotriaconta-2,4,6(32),7,9,11,13,16,18-nonaen-24-one] | 0.003 µM | 0.001 µM | 0.0019 µM | 0.022 µM | 0.003 µM |  |  |  |  |  |  |  |  |
| O=C1OC/C=C\c2c(Cl)cc3[nH]ncc3c2-c2ncc3c(nc(OC[C@@]45CCCN4C[C@H](F)C5)nc3c2F)N2CCC[C@H](C2)O1 (single isomer, unassigned) [Example 122] | 0.005 µM | 0.003 µM | 0.008 µM | 0.25 µM | 0.1 µM |  |  |  |  |  |  |  |  |
| O=C1CCCCc2c(Cl)cc3[nH]ncc3c2-c2ncc3c(nc(OC[C@@]45CCCN4C[C@H](F)C5)nc3c2F)N2CCC[C@@H](C1)C2 [Example 372] |  |  |  |  |  |  |  |  | 0.003 µM | 0.002 µM | 0.0044 µM | 0.017 µM | 0.02 µM |
